Test results: patent US9493727B2 (priority 2010, dated 2016)
Several values for one entry are separate records, joined by “and”; a condition that tells them apart may be missing. Equal entries are not always repeated.

What was measured:
[1] = type: physicochemical

Molecule | Anionic 1 h, emulsion stability, mL separation [mL] | Anionic 24 h, emulsion stability, mL separation [mL] | Adjuvant 1 h, emulsion stability, mL separation [mL] | Nonionic 1 h, emulsion stability, mL separation [mL] | Adjuvant 24 h, emulsion stability, mL separation [mL] | Nonionic 24 h, emulsion stability, mL separation [mL] | % Separation 1 h (C = cream) [1] | % Separation 24 h (C = cream) ([1]; 24 h) | % Separation 24 h (O = oil separated) ([1]; 24 h)
CN(C)CCCNC(=O)CCCCCCC/C=C/CCCCCCCC(=O)NCCCN(C)C [Mix-26, C18 DiDMAPA Amide] | 0 | 0 |  |  |  |  |  |  | 
C[N+](C)([O-])CCCNC(=O)CCCCCCC/C=C/CCCCCCCC(=O)NCCC[N+](C)(C)[O-] [Mix-29, C18 DiDMAPA DiAO] | 0 | 0 | 0 | 0 | 0 |  |  |  | 
C=CCCCCCCCC(=O)NCCC[N+](C)(C)[O-] [Sample C10-20, C10 DMAPA AO] | 0 | 0 | 0 | 1 | 0 | 1 |  |  | 
CCCC(CCCCCCCC(=O)NCCC[N+](C)(C)[O-])S(=O)(=O)[O-].[Na+] (centres unmarked) [Sample C12-21, C12 DMAPA AO Sulfonate] | 0 | 0 | 0 |  | 0 |  |  |  | 
CCCC(CCCCCCCC(=O)NCCCN(C)C)S(=O)(=O)[O-].[Na+] (centres unmarked) [Sample C12-42, C12 DMAPA Sulfonate] |  |  |  |  |  |  | 3 C % | 3.1 C % and 3.3 C % | 
CCCCCCCC(CCCCCCCC(=O)NCCCN(C)C)S(=O)(=O)[O-].[Na+] (centres unmarked) [Sample C16-11, C16-DMAPA Sulfonate] |  |  |  |  |  |  | 3.1 C % and 2.8 C % | 4 C % and 3.6 C % | 
C[N+](C)([O-])CCCNC(=O)CCCCCCCCC(CCCCCCCC(=O)NCCC[N+](C)(C)[O-])S(=O)(=O)[O-].[Na+] (centres unmarked) [Sample C18-30, C18 DiDMAPA DiAO Sulfonate] | 0 | 0 | 0 |  | 0 |  | 3.9 C % and 3.1 C % | 3.5 C, 0.5 O % and 3.6 C % | 3.5 C, 0.5 O %
CN(C)CCCNC(=O)CCCCCCCCC(CCCCCCCC(=O)NCCCN(C)C)S(=O)(=O)[O-].[Na+] (centres unmarked) [Sample C18-68, C18 diDMAPA Amide Sulfonate] | 0 | 0 | 0 |  | 0 |  |  |  | 
C16 DMAPA Sulfonate AO [Sample C16-12] | 0 | 0 | 0 | 0.4 | 0 | 0.5 |  |  | 
